The source of these data is patent publication US20230295260A1, “GLP RECEPTOR AGONISTS” (HEPTARES THERAPEUTICS LIMITED, priority 2020, published 2023).

Non-standard residues stand in square brackets, D forms with d. Residues, ends and D or L forms follow the SMILES beside them. *: point of attachment. Malonyl(2,2-Me2,histaminyl) = CC(C)(C(=O)NCCc1cnc[nH]1)C(=O)*; Ala(1H-tetrazol-5-yl) = N[C@@H](Cc1nnn[nH]1)C(=O)O; αMeF = C[C@](N)(Cc1ccccc1)C(=O)O; Nle = CCCC[C@H](N)C(=O)O; Aib = CC(C)(N)C(=O)O; Alloc = C=CCOC(=O)*

The target in assay [1] is T1, human GLP2 receptor (Homo sapiens, UniProt O95838).
T1 sequence (O95838 1-553): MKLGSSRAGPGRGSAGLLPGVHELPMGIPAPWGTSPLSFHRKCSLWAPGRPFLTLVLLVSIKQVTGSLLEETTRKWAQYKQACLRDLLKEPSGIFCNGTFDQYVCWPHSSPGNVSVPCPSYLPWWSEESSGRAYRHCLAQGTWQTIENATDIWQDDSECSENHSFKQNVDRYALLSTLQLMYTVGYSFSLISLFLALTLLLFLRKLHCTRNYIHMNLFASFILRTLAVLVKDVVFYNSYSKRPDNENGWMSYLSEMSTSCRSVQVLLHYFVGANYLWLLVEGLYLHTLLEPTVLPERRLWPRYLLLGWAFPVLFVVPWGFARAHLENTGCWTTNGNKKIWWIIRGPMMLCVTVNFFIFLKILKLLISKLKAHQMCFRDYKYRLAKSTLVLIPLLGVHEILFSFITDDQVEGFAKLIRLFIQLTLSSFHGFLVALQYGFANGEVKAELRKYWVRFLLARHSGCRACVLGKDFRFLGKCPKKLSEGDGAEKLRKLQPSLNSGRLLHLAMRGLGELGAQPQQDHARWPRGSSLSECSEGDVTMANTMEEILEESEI
In words: cAMP accumulation assay (HTRF), functional agonism of human GLP2 receptor in HEK cells.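 For all read-outs here: HEK cells transduced via BacMam to express human GLP2 receptor, agonist-stimulated cAMP measured by HTRF after 45 min at 37 °C in HBSS with 0.5 mM IBMX.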 The note with it: for Emax: HEK293, read-out: Human GLP-2R agonist cAMP Emax.
Protocol: (§1) The functional activity of the peptides were assessed using a HTRF cAMP assay. pEC50 values are quoted.
(§2) cAMP production upon agonist stimulation of human GLP2 or GLP1 receptor was assessed utilizing HiRange cAMP kit (Cisbio). In brief, HEK cells were infected with either human GLP2 or GLP1 receptor BacMam virus for 24 hours and frozen for later use in the assay. […] Cells were prepared in the assay buffer (HBSS (Lonza) supplemented with 0.5 mM IBMX (Tocris)). After 45 min incubation at 37° C., the reaction was stopped by addition of the HTRF detection reagents in the lysis buffer provided in the kit.

In assay [2] the target is T2, human GLP1 receptor (Homo sapiens, UniProt P43220).
T2 construct: expressed in transfected cells; host or cells: HEK cells, BacMam virus transduction
Nature of the assay: cAMP accumulation assay (HTRF), functional agonism of human GLP1 receptor in HEK cells. The note with it: HEK cells, human GLP1 receptor BacMam, 45 min 37° C.; for Emax: HEK293, read-out: Human GLP-1R agonist cAMP Emax; for EC50: read-out: Human GLP-1R agonist cAMP pEC50 (converted). Type of assay: cell-based.
Protocol: as §1, §2

T2 sequence (P43220 24-463): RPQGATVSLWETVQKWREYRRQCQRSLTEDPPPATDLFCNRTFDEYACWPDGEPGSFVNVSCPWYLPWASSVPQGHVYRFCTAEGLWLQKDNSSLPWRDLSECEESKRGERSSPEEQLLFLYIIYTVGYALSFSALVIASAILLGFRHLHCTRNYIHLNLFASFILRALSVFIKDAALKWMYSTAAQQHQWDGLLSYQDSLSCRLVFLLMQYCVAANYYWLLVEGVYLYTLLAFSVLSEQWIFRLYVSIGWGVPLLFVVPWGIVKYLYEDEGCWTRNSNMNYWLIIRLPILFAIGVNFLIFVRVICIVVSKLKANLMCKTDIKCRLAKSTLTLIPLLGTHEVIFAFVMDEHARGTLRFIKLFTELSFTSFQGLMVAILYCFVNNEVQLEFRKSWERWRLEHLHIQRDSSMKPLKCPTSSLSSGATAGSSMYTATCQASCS

For orientation: Emax means the size of the effect at its maximum, as opposed to the concentration needed. Regarding `C=CCOC(=O)NCCCC[C@H](NC(=O)[C@H](CC(C)C)NC(=O)[C@H](CC(=O)O)NC(=O)[C@H](CC(C)C)NC(=O)[C@@H](NC(=O)[C@@H](NC(=O)[C@@H](Cc1ccccc1)NC(=O)[C@H](CCCC)NC(=O)[C@H](CCC(=O)O)NC(=O)[C@H](CC(=O)O)NC(=O)[C@H](CO)NC(=O)[C@H](Cc1ccccc1)NC(=O)[C@H](CO)NC(=O)CNC(=O)[C@H](Cc1nn[nH]n1)NC(=O)C(C)(C)C(=O)NCCc1c[nH]cn1)[C@@H](C)O)[C@@H](C)CC)C(=O)NC(C)(C)C(=O)N[C@@H](C)C(=O)N[C@@H](CCCCN)C(=O)N[C@@H](CC(=O)O)C(=O)N[C@@H](Cc1ccccc1)C(=O)N[C@H](C(=O)N[C@@H](CC(N)=O)C(=O)N[C@@H](Cc1c[nH]c2ccccc12)C(=O)N[C@@H](CC(C)C)C(=O)N[C@H](C(=O)N[C@@H](CCC(N)=O)C(=O)N[C@H](C(=O)N[C@@H](CCCCN)C(=O)N[C@H](C(=O)N[C@H](C(=O)N[C@@H](CC(=O)O)C(N)=O)[C@@H](C)O)[C@@H](C)CC)[C@@H](C)O)[C@@H](C)CC)[C@@H](C)CC` [Example 18] ({Malonyl(2,2-Me2,histaminyl)}-[Ala(1H-tetrazol-5-yl)]GSFSDE[Nle][dF]TILDLK(Alloc)[Aib]AKDFINWLIQTKITD-NH2), in assay [1], the EC50 was 0.01 nM and the Emax is 102%. In assay [2], the Emax stood at 94% and the EC50 was 6.31 nM.
In the case of `C=CCOC(=O)NCCCC[C@H](NC(=O)[C@H](CC(C)C)NC(=O)[C@H](CC(=O)O)NC(=O)[C@H](CC(C)C)NC(=O)[C@@H](NC(=O)[C@@H](NC(=O)[C@@H](Cc1ccccc1)NC(=O)[C@H](CCCC)NC(=O)[C@H](CCC(=O)O)NC(=O)[C@H](CC(=O)O)NC(=O)[C@H](CO)NC(=O)[C@H](Cc1ccccc1)NC(=O)[C@H](CO)NC(=O)CNC(=O)[C@H](Cc1nn[nH]n1)NC(=O)C(C)(C)C(=O)NCCc1c[nH]cn1)[C@@H](C)O)[C@@H](C)CC)C(=O)N[C@@H](C)C(=O)N[C@@H](C)C(=O)NC(C)(C)C(=O)N[C@@H](CC(=O)O)C(=O)N[C@@H](Cc1ccccc1)C(=O)N[C@H](C(=O)N[C@@H](CC(N)=O)C(=O)N[C@@H](Cc1c[nH]c2ccccc12)C(=O)N[C@@H](CC(C)C)C(=O)N[C@H](C(=O)N[C@@H](CCC(N)=O)C(=O)N[C@H](C(=O)N[C@@H](CCCCN)C(=O)N[C@H](C(=O)N[C@H](C(=O)N[C@@H](Cc1ccccc1)C(N)=O)[C@@H](C)O)[C@@H](C)CC)[C@@H](C)O)[C@@H](C)CC)[C@@H](C)CC` [Example 9] ({Malonyl(2,2-Me2,histaminyl)}-[Ala(1H-tetrazol-5-yl)]GSFSDE[Nle][dF]TILDLK(Alloc)AA[Aib]DFINWLIQTKITF-NH2), in assay [1], the EC50 is 0.0126 nM and the Emax was found to be 102%. In addition, in assay [2], the Emax stood at 94.1% and the EC50 is 20 nM.
For `C=CCOC(=O)NCCCC[C@H](NC(=O)[C@H](C)NC(=O)[C@H](C)NC(=O)[C@H](CCCCNC(=O)OCC=C)NC(=O)[C@H](CC(C)C)NC(=O)[C@H](CC(=O)O)NC(=O)[C@H](CC(C)C)NC(=O)[C@@H](NC(=O)[C@@H](NC(=O)[C@@H](Cc1ccccc1)NC(=O)[C@H](CCCC)NC(=O)[C@H](CCC(=O)O)NC(=O)[C@H](CC(=O)O)NC(=O)[C@H](CO)NC(=O)[C@H](Cc1ccccc1)NC(=O)[C@H](CO)NC(=O)CNC(=O)[C@H](Cc1nn[nH]n1)NC(=O)C(C)(C)C(=O)NCCc1c[nH]cn1)[C@@H](C)O)[C@@H](C)CC)C(=O)N[C@@H](CC(=O)O)C(=O)N[C@@H](Cc1ccccc1)C(=O)N[C@H](C(=O)N[C@@H](CC(N)=O)C(=O)N[C@@H](Cc1c[nH]c2ccccc12)C(=O)N[C@@H](CC(C)C)C(=O)N[C@H](C(=O)N[C@@H](CCC(N)=O)C(=O)N[C@H](C(=O)N[C@@H](CCCCN)C(=O)N[C@H](C(=O)N[C@H](C(=O)N[C@@H](CC(=O)O)C(N)=O)[C@@H](C)O)[C@@H](C)CC)[C@@H](C)O)[C@@H](C)CC)[C@@H](C)CC` [Example 14] ({Malonyl(2,2-Me2,histaminyl)}-[Ala(1H-tetrazol-5-yl)]GSFSDE[Nle][dF]TILDLK(Alloc)AAK(Alloc)DFINWLIQTKITD-NH2), in that order: 0.01 nM, 101%, 96.1% and 12.6 nM.
For `C=CCOC(=O)NCCCC[C@H](NC(=O)[C@H](C)NC(=O)[C@H](C)NC(=O)[C@H](CCCCNC(=O)OCC=C)NC(=O)[C@H](CC(C)C)NC(=O)[C@H](CC(=O)O)NC(=O)[C@H](CC(C)C)NC(=O)C(C)(C)NC(=O)[C@@H](NC(=O)[C@@H](Cc1ccccc1)NC(=O)[C@H](CCCC)NC(=O)[C@H](CCC(=O)O)NC(=O)[C@H](CC(=O)O)NC(=O)[C@H](CO)NC(=O)[C@H](Cc1ccccc1)NC(=O)[C@H](CO)NC(=O)CNC(=O)[C@H](Cc1nn[nH]n1)NC(=O)C(C)(C)C(=O)NCCc1c[nH]cn1)[C@@H](C)O)C(=O)N[C@@H](CC(=O)O)C(=O)N[C@@H](Cc1ccccc1)C(=O)N[C@H](C(=O)N[C@@H](CC(N)=O)C(=O)N[C@@H](Cc1c[nH]c2ccccc12)C(=O)N[C@@H](CC(C)C)C(=O)N[C@H](C(=O)N[C@@H](CCC(N)=O)C(=O)N[C@H](C(=O)N[C@@H](CCCCN)C(=O)N[C@H](C(=O)N[C@H](C(=O)N[C@@H](Cc1ccccc1)C(N)=O)[C@@H](C)O)[C@@H](C)CC)[C@@H](C)O)[C@@H](C)CC)[C@@H](C)CC` [Example 6] ({Malonyl(2,2-Me2,histaminyl)}-[Ala(1H-tetrazol-5-yl)]GSFSDE[Nle][dF]T[Aib]LDLK(Alloc)AAK(Alloc)DFINWLIQTKITF-NH2), in that order: 0.0316 nM, 103%, 96.4% and 10 nM.
As to `C=CCOC(=O)NCCCC[C@H](NC(=O)[C@H](CC(C)C)NC(=O)[C@H](CC(=O)O)NC(=O)[C@H](CC(C)C)NC(=O)[C@@H](NC(=O)[C@@H](NC(=O)[C@@H](Cc1ccccc1)NC(=O)[C@H](CCCC)NC(=O)[C@H](CCC(=O)O)NC(=O)[C@H](CC(=O)O)NC(=O)[C@H](CO)NC(=O)[C@](C)(Cc1ccccc1)NC(=O)[C@H](CO)NC(=O)CNC(=O)[C@H](Cc1nn[nH]n1)NC(=O)C(C)(C)C(=O)NCCc1c[nH]cn1)[C@@H](C)O)[C@@H](C)CC)C(=O)N[C@@H](C)C(=O)N[C@@H](C)C(=O)N[C@@H](CCCCN)C(=O)N[C@@H](CC(=O)O)C(=O)N[C@@H](Cc1ccccc1)C(=O)N[C@H](C(=O)N[C@@H](CC(N)=O)C(=O)N[C@@H](Cc1c[nH]c2ccccc12)C(=O)N[C@@H](CC(C)C)C(=O)N[C@H](C(=O)N[C@@H](CCC(N)=O)C(=O)N[C@H](C(=O)N[C@@H](CCCCN)C(=O)N[C@H](C(=O)N[C@H](C(=O)N[C@@H](CC(=O)O)C(N)=O)[C@@H](C)O)[C@@H](C)CC)[C@@H](C)O)[C@@H](C)CC)[C@@H](C)CC` [Example 10] ({Malonyl(2,2-Me2,histaminyl)}-[Ala(1H-tetrazol-5-yl)]GS[αMeF]SDE[Nle][dF]TILDLK(Alloc)AAKDFINWLIQTKITD-NH2), in assay [1], the EC50 was 0.01 nM and the Emax turned out to be 101%. In addition, in assay [2], the Emax was 96.4% and the EC50 was 0.1 nM.
